Results published in patent publication US11541055B2, “Inhibitors of human immunodeficiency virus replication” (ViiV Healthcare UK (No. 5) LIMITED, priority 2018, dated 2023).
pEC50: −log10 of the molar value.

What was measured:
[1] = system: recombinant NL4-3 virus (Renilla luciferase) in MT-2 cells; assay: HIV cell culture assay (antiviral activity, luciferase readout); type: cell-based; details: Renilla, NL43
Procedure, shortened: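 Antiviral EC50 was derived via the median effect equation from luciferase signal. The signal came from MT-2 cultures infected for 4–5 days with a nef-deleted, Renilla luciferase-expressing NL4-3 reporter virus (made in 293T cells) in the presence of compound dilutions.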

[2] = Compound cytotoxicity, XTT-based colorimetric assay; type: cell-based; details: human; uninfected MT2 cells, day 4, XTT
Procedure, shortened: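 Run under the antiviral-assay protocol but without virus. Viability was read on day 4 and CC50 values were derived from the readout.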

Row | SMILES | pEC50 [1] | CC50 at 4 days [2] [nM]
1 | CC(C)c1nccc(-c2ccc3c(=O)n(-c4ccc(Cl)c5c(NS(=O)(=O)C6CC6)nn(CC(F)F)c45)c([C@H](Cc4cc(F)cc(F)c4)NC(=O)Cn4nc(C(F)F)c5c4C(F)(F)[C@@H]4C[C@H]54)nc3c2)n1 (atropisomer, axis not shown; (P)) [Example 91, N—((S)-1-((3P)-3-(4-chloro-3-(cyclopropanesulfonamido)-1-(2,2-difluoroethyl)-1H-indazol-7-yl)-7-(2-isopropylpyrimidin-4-yl)-4-oxo-3,4-dihydroquinazolin-2-yl)-2-(3,5-difluorophenyl)ethyl)-2-((3bS,4aR)-3-(difluoromethyl)-5,5-difluoro-3b,4,4a,5-tetrahydro-1H-cyclopropa[3,4]cyclopenta[1,2-c]pyrazol-1-yl)acetamide] | 9.72 | > 500
2 | Cn1nc(NS(C)(=O)=O)c2c(Cl)ccc(-n3c([C@H](Cc4cc(F)cc(F)c4)NC(=O)Cn4nc(C(F)F)c5c4C(F)(F)[C@@H]4C[C@H]54)nc4cc(-c5ccccc5C(F)F)ccc4c3=O)c21 (atropisomer, axis not shown; (P)) [Example 12, N—((S)-1-((3P)-3-(4-chloro-1-methyl-3-(methylsulfonamido)-1H-indazol-7-yl)-7-(2-(difluoromethyl)phenyl)-4-oxo-3,4-dihydroquinazolin-2-yl)-2-(3,5-difluorophenyl)ethyl)-2-((3bS,4aR)-3-(difluoromethyl)-5,5-difluoro-3b,4,4a,5-tetrahydro-1H-cyclopropa[3,4]cyclopenta[1,2-c]pyrazol-1-yl)acetamide] | 9.43 | > 500
3 | COc1cc(C(F)(F)F)nc(-c2ccc3c(=O)n(-c4ccc(Cl)c5c(NS(C)(=O)=O)nn(C)c45)c([C@H](Cc4cc(F)cc(F)c4)NC(=O)Cn4nc(C(F)F)c5c4C(F)(F)[C@@H]4C[C@H]54)nc3c2)n1 (atropisomer, axis not shown; (P)) [Example 54, N—((S)-1-((3P)-3-(4-chloro-1-methyl-3-(methylsulfonamido)-1H-indazol-7-yl)-7-(4-methoxy-6-(trifluoromethyl)pyrimidin-2-yl)-4-oxo-3,4-dihydroquinazolin-2-yl)-2-(3,5-difluorophenyl)ethyl)-2-((3bS,4aR)-3-(difluoromethyl)-5,5-difluoro-3b,4,4a,5-tetrahydro-1H-cyclopropa[3,4]cyclopenta[1,2-c]pyrazol-1-yl)acetamide] | 9.51 | > 500
4 | Cc1ccc(-c2ccc3c(=O)n(-c4ccc(Cl)c5c(NS(C)(=O)=O)nn(C)c45)c([C@H](Cc4cc(F)cc(F)c4)NC(=O)Cn4nc(C(F)F)c5c4C(F)(F)[C@@H]4C[C@H]54)nc3c2)nn1 (atropisomer, axis not shown; (P)) [Example 50, N—((S)-1-((3P)-3-(4-chloro-1-methyl-3-(methylsulfonamido)-1H-indazol-7-yl)-7-(6-methylpyridazin-3-yl)-4-oxo-3,4-dihydroquinazolin-2-yl)-2-(3,5-difluorophenyl)ethyl)-2-((3bS,4aR)-3-(difluoromethyl)-5,5-difluoro-3b,4,4a,5-tetrahydro-1H-cyclopropa[3,4]cyclopenta[1,2-c]pyrazol-1-yl)acetamide] | 10.33 | > 500
5 | Cc1nc(C)c(-c2ccc3c(=O)n(-c4ccc(Cl)c5c(NS(C)(=O)=O)nn(C)c45)c([C@H](Cc4cc(F)cc(F)c4)NC(=O)Cn4nc(C(F)F)c5c4C(F)(F)[C@@H]4C[C@H]54)nc3c2)s1 (atropisomer, axis not shown; (P)) [Example 6, N—((S)-1-((3P)-3-(4-chloro-1-methyl-3-(methylsulfonamido)-1H-indazol-7-yl)-7-(2,4-dimethylthiazol-5-yl)-4-oxo-3,4-dihydroquinazolin-2-yl)-2-(3,5-difluorophenyl)ethyl)-2-((3bS,4aR)-3-(difluoromethyl)-5,5-difluoro-3b,4,4a,5-tetrahydro-1H-cyclopropa[3,4]cyclopenta[1,2-c]pyrazol-1-yl)acetamide] | 9.92 | > 500
6 | Cn1nc(NS(C)(=O)=O)c2c(Cl)ccc(-n3c([C@H](Cc4cc(F)cc(F)c4)NC(=O)Cn4nc(C(F)F)c5c4C(F)(F)[C@@H]4C[C@H]54)nc4cc(-c5cc(C(F)(F)F)ccn5)ccc4c3=O)c21 (atropisomer, axis not shown; (P)) [Example 80, N—((S)-1-((3P)-3-(4-chloro-1-methyl-3-(methylsulfonamido)-1H-indazol-7-yl)-4-oxo-7-(4-(trifluoromethyl)pyridin-2-yl)-3,4-dihydroquinazolin-2-yl)-2-(3,5-difluorophenyl)ethyl)-2-((3bS,4aR)-3-(difluoromethyl)-5,5-difluoro-3b,4,4a,5-tetrahydro-1H-cyclopropa[3,4]cyclopenta[1,2-c]pyrazol-1-yl)acetamide] | 9.70 | > 100
7 | Cn1nc(NS(C)(=O)=O)c2c(Cl)ccc(-n3c([C@H](Cc4cc(F)cc(F)c4)NC(=O)Cn4nc(C(F)F)c5c4C(F)(F)[C@@H]4C[C@H]54)nc4cc(-c5cccc(C(F)F)n5)ccc4c3=O)c21 (atropisomer, axis not shown) [Example 117] | 10.16 | > 500
8 | Cc1ncc(-c2ccc3c(=O)n(-c4ccc(Cl)c5c(NS(=O)(=O)C6CC6)nn(CC(F)F)c45)c([C@H](Cc4cc(F)cc(F)c4)NC(=O)Cn4nc(C(F)F)c5c4C(F)(F)[C@@H]4C[C@H]54)nc3c2)s1 (atropisomer, axis not shown) [Example 97, N-[(1S)-1-{3-[4-chloro-3-cyclopropanesulfonamido-1-(2,2-difluoroethyl)-1H-indazol-7-yl]-7-(2-methyl-1,3-thiazol-5-yl)-4-oxo-3,4-dihydroquinazolin-2-yl}-2-(3,5-difluorophenyl)ethyl]-2-[(2S,4R)-9-(difluoromethyl)-5,5-difluoro-7,8-diazatricyclo[4.3.0.0^2,^4]nona-1(6),8-dien-7-yl]acetamide] | 9.66 | > 500
9 | CN(c1ccccc1-c1ccc2c(=O)n(-c3ccc(Cl)c4c(NS(C)(=O)=O)nn(C)c34)c([C@H](Cc3cc(F)cc(F)c3)NC(=O)Cn3nc(C(F)F)c4c3C(F)(F)[C@@H]3C[C@H]43)nc2c1)S(C)(=O)=O (atropisomer, axis not shown; (P)) [Example 27, N—((S)-1-((3P)-3-(4-chloro-1-methyl-3-(methylsulfonamido)-1H-indazol-7-yl)-7-(2-(N-methylmethylsulfonamido)phenyl)-4-oxo-3,4-dihydroquinazolin-2-yl)-2-(3,5-difluorophenyl)ethyl)-2-((3bS,4aR)-3-(difluoromethyl)-5,5-difluoro-3b,4,4a,5-tetrahydro-1H-cyclopropa[3,4]cyclopenta[1,2-c]pyrazol-1-yl)acetamide] | 9.31 | > 500
10 | O=C(Cn1nc(C(F)F)c2c1C(F)(F)[C@@H]1C[C@H]21)N[C@@H](Cc1cc(F)cc(F)c1)c1nc2cc(-c3nccc(C(F)F)n3)ccc2c(=O)n1-c1ccc(Cl)c2c(NS(=O)(=O)C3CC3)nn(CC(F)F)c12 (atropisomer, axis not shown; (P)) [Example 86, N—((S)-1-((3P)-3-(4-chloro-3-(cyclopropanesulfonamido)-1-(2,2-difluoroethyl)-1H-indazol-7-yl)-7-(4-(difluoromethyl)pyrimidin-2-yl)-4-oxo-3,4-dihydroquinazolin-2-yl)-2-(3,5-difluorophenyl)ethyl)-2-((3bS,4aR)-3-(difluoromethyl)-5,5-difluoro-3b,4,4a,5-tetrahydro-1H-cyclopropa[3,4]cyclopenta[1,2-c]pyrazol-1-yl)acetamide] | 10.11 | > 500
11 | Cc1cc(C)nc(-c2ccc3c(=O)n(-c4ccc(Cl)c5c(NS(C)(=O)=O)nn(CC(F)(F)F)c45)c([C@H](Cc4cc(F)cc(F)c4)NC(=O)Cn4nc(C(F)F)c5c4C(F)(F)[C@@H]4C[C@H]54)nc3c2)c1 (atropisomer, axis not shown) [Example 101, N-[(1S)-1-{3-[4-chloro-3-methanesulfonamido-1-(2,2,2-trifluoroethyl)-1H-indazol-7-yl]-7-(4,6-dimethylpyridin-2-yl)-4-oxo-3,4-dihydroquinazolin-2-yl}-2-(3,5-difluorophenyl)ethyl]-2-[(2S,4R)-9-(difluoromethyl)-5,5-difluoro-7,8-diazatricyclo[4.3.0.0^2,^4]nona-1(6),8-dien-7-yl]acetamide] | 9.68 | > 500
12 | Cc1ncc(-c2ccc3c(=O)n(-c4ccc(Cl)c5c(NS(C)(=O)=O)nn(C)c45)c([C@H](Cc4cc(F)cc(F)c4)NC(=O)Cn4nc(C(F)F)c5c4C(F)(F)[C@@H]4C[C@H]54)nc3c2)s1 (atropisomer, axis not shown; (P)) [Example 26, N—((S)-1-((3P)-3-(4-chloro-1-methyl-3-(methylsulfonamido)-1H-indazol-7-yl)-7-(2-methylthiazol-5-yl)-4-oxo-3,4-dihydroquinazolin-2-yl)-2-(3,5-difluorophenyl)ethyl)-2-((3bS,4aR)-3-(difluoromethyl)-5,5-difluoro-3b,4,4a,5-tetrahydro-1H-cyclopropa[3,4]cyclopenta[1,2-c]pyrazol-1-yl)acetamide] | 9.96 | > 500
13 | COc1ccc(-c2ccc3c(=O)n(-c4ccc(Cl)c5c(NS(C)(=O)=O)nn(C)c45)c([C@H](Cc4cc(F)cc(F)c4)NC(=O)Cn4nc(C(F)F)c5c4C(F)(F)[C@@H]4C[C@H]54)nc3c2)nn1 (atropisomer, axis not shown; (P)) [Example 7, N—((S)-1-((3P)-3-(4-chloro-1-methyl-3-(methylsulfonamido)-1H-indazol-7-yl)-7-(6-methoxypyridazin-3-yl)-4-oxo-3,4-dihydroquinazolin-2-yl)-2-(3,5-difluorophenyl)ethyl)-2-((3bS,4aR)-3-(difluoromethyl)-5,5-difluoro-3b,4,4a,5-tetrahydro-1H-cyclopropa[3,4]cyclopenta[1,2-c]pyrazol-1-yl)acetamide] | 10.28 | > 500
